Patent publication US4946954A, “Platinum pharmaceutical agents” (priority 1989, dated 1990)

Legend:
[1] = test system: P388 cells; assay: Example XXXIX: Murine Antitumor Activity, P388 Antitumor Activity % ILS; type: in vivo, murine; male CD2F1 mice; details: vehicle mean survival 8.5 days
Experimental: (§1) Murine Antitumor Activity
(§2) *P388 cells implanted intraperitoneally (i.p.) into male CD2F1 mice
(§3) on Day 0. Drugs (in 5% dextrose) administered i.p. on Day 1. Increase in
(§4) life span (% ILS) was calculated compared to a group of mice receiving
(§5) drug vehicle, with a mean survival of 8.5 days.
(§6) +compound was administered as a suspension.

[2] = test system: male CD2F1 mice; assay: Example XXXIX: Deaths Due to Drug Toxicity; type: in vivo
Experimental: as §1, §2, §3, §4, §5, §6

[3] = test system: murine P388 leukemia; assay: Example XXXVII: antileukemic activity against murine P388 leukemia, mean survival days and percentage increased life span; type: in vivo; details: 10 mg/kg i.p. on day 1; 1×10^6 P388 cells i.p.; CD2F1 male mice; in sterile saline
Experimental: The compound 2-[[[3,4,6-tri-O-acetyl-2-(N-acetylamino)-2-deoxy-alpha-D-glucopyranosyl]amino]thioxomethyl]amino]butane-dioato-O,O']-[1,2-cyclohexanediammine-N,N']platinum (II) and cisplatin were tested against murine P388 leukemia. The murine P388 leukemia system is known to be sensitive to cisplatin. The leukemia was maintained intraperitoneally in female DBA/2 mice.
Prior to administration, cisplatin was dissolved in sterile saline (0.85% sodium chloride). The compound 2-[[[3,4,6-tri-O-acetyl-2-(N-acetylamino)-2-deoxy-alpha-D-glucopyranosyl]amino]-thioxomethyl]amino]butanedioato-O,O']-[1,2-cyclohexanediammine-N,N']platinum (II) was dissolved in sterile water at 4° C. immediately prior to administration.
Each compound was administered intraperitoneally to groups of CD2F1 male mice on day 1 after intraperitoneal implantation of 1×10^6 P388 leukemia cells. P388 antileukemic activity for each compound was assessed by mean survival days and percentage increased life span (%ILS).
%ILS is calculated as follows: […]
(§7) wherein T is the mean survival days of the treated mice and C is the mean survival days of the untreated mice.

[4] = test system: murine P388 leukemia; assay: Example XXI: antileukemic activity against murine P388 leukemia, mean survival days and percentage increased life span; type: in vivo; details: 10 mg/kg i.p. on day 1; 1×10^6 P388 cells i.p.; CD2F1 male mice; 5% ethanol, 95% sterile water
Experimental: The cyclohexane-1,2-diammine-platinum(II) salt of 2-(acetylamino)-3,4,6-tri-O-acetyl-2-deoxyglucopyranosyl-amino-thioxomethyl-imino diacetic acid and cisplatin were tested against murine P388 leukemia. The murine P388 leukemia system is known to be sensitive to cisplatin. The leukemia was maintained intraperitoneally in female DBA/2 mice.
Prior to administration, cisplatin was dissolved in ethanol. The solution was then adjusted to 5% ethanol, 95% sterile water The cyclohexane-1,2-diammine-platinum(II) salt of 2-(acetylamino)-3,4,6-tri-O-acetyl-2-deoxyglucopyranosylamino-thioxomethyl-imino diacetic acid was dissolved in sterile water at 4 degrees celsius immediately prior to administration.
Each compound was administered intraperitoneally to groups of CD2F1 male mice on day 1 after intraperitoneal implantation of 1×10^6 P388 leukemia cells. P388 antileukemic activity for each compound was assessed by mean survival days and percentage increased life span (% ILS).
% ILS is calculated as follows: […]
as §7

[5] = 250 mg/kg single dose i.p. on Day 1, administered as a suspension
[6] = 150 mg/kg single dose i.p. on Day 1, in 5% dextrose
[7] = 200 mg/kg single dose i.p. on Day 1, in 5% dextrose

## Cis-R,R-(formamidomalonato-O,O')(1,2-cyclohexanediamine-N,N') platinum (II) [FMP]
[1]; 150 mg/kg single dose i.p. on Day 1, administered as a suspension
  P388 Antitumor Activity: % ILS: 84%
[1]; 200 mg/kg single dose i.p. on Day 1, administered as a suspension
  P388 Antitumor Activity: % ILS: 115%
[1]; [5]
  P388 Antitumor Activity: % ILS: 81%
[2]; [5]
  Deaths Due to Drug Toxicity: 2/10

## cis-R,R-[2-[(pentalacetylgluconyl)imino]propanedioato-O,O'](1,2-cyclohexanediammine-N,N')platinum(II) [R,R-AG-AMP]
[1]; [6]
  P388 Antitumor Activity: % ILS: 75%
[2]; [6]
  Deaths Due to Drug Toxicity: 0/10

## Cis-R,R-(acetamidomalonato-O,O')(1,2-cyclohexanediamine-N,N')platinum (II) [AMP]
[1]; [6]
  P388 Antitumor Activity: % ILS: 115%
[1]; [7]
  P388 Antitumor Activity: % ILS: 93%
[2]; [7]
  Deaths Due to Drug Toxicity: 1/10
[2]; 250 mg/kg single dose i.p. on Day 1, in 5% dextrose
  Deaths Due to Drug Toxicity: 5/10

## N.N.[Cl][Pt][Cl] [cisplatin, cis-diammine-dichloroplatinum (II)]
[3]
  % ILS (percentage increased life span): 96%
  Mean Survival: 15.7 days
[4]
  % ILS (percentage increased life span): 83%
  Mean Survival: 17.4 days
